Measurements: patent US7482124B2, “Method of identifying a PPARgamma-agonist compound having a decreased likelihood of inducing dose-dependent peripheral edema” (Bristol-Myers Squibb Company, priority 2005, dated 2009)
Values joined by “and” are separate entries in the source; they are usually repeats but may differ in a detail not shown here. Equal values may be shown once.

Tests used:
diabetics = conditions: literature (Leff and Reed 2002; Nesto et al. 2003); cited from earlier work
[1] = test system: human renin gene expression in CALU-6 cells; assay: Renin gene expression in CALU-6 cells, quantitative RT-PCR dose-titration; type: cell-based
From the text: (§1) Cell line maintenance: CALU-6 cells and growth media were obtained from ATCC® (Manassas, Va.). CALU-6 cells were recovered and expanded in complete growth media (Minimal Essential Media+Earle's Balanced Salt Solution, 1% penicillin/streptomycin, 10% Fetal Bovine Serum). Antibiotics and FBS were purchased from Invitrogen.
(§2) Compounds: Compound A, Compound B, Compound D, Compound C, Compound G, Compound F, Compound H, Compound I, Compound J and Compound K were synthesized at Bristol-Myers Squibb Co. Compound E was purified by reverse phase high-performance liquid chromatography from commercial pharmaceutical preparations. Compounds A, B, F, and G are dual PPAR alpha and gamma agonists; while compounds C, D, and E are single PPAR gamma agonists. Fenofibrate and DMSO were purchased from Sigma. […]
(§3) Quantitative RT-PCR experiments: CALU-6 cells were seeded on day 0 in at 5×10^5 cells/well, in 6-well tissue culture plates. […] RNA quantities were determined spectrophotometrically using a SPECTRAMAX® 384 spectrophotometer (Molecular Devices). […] All data were further analyzed using Microsoft Excel. Fold-change in gene expression upon treatment with compound was expressed as […] ΔCt, where ΔΔCt=(Ctrenin, endothelin-1−CtGAPDH)DMSO−(Ctrenin, endothelin-1−CtGAPDH)treatment. […] Dose-titration experiments were further analyzed using GraphPad Prism Software (GraphPad Inc) to derive EC50 values. […]

[2] = test system: human renin gene expression in CALU-6 cells; assay: Human renin expression in CALU-6 cells by microarray analysis (Example 8); type: cell-based; conditions: CALU-6, 5×EC50, 24 hr, FIGS. 12A-B
Experimental: As an independent measurement of the renin induction by PPAR agonists observed using RT-PCR (see Example 7 and FIG. 11), four of the experimental treatment groups described under the “Induction Experiments” section in Example 7, were analyzed on AFFYMETRIX® genechips, including; DMSO, Compound A, Compound B, and Compound E. Triplicate samples from each treatment group were analyzed.
All cDNA and cRNA synthesis as well as all hybridizations and subsequent washing steps were performed following the […]® Expression Analysis Technical Manual (Affymetrix). AFFYMETRIX® HG-U133A gene chips were used for all expression profiling studies in this invention.
Micro Array Suite (MAS) 5.0 (Affymetrix) software was used to pre-process all micro-array data. Each treated sample (including DMSO control) was first scaled to an average intensity value of 1500. The data was further analyzed in Excel '97 (Microsoft).
All treated samples were compiled into one Excel spreadsheet such that each compound treated sample (and DMSO control) was aligned for all 22283 genes on the HG-U133A […]®. Gene fold-change values were calculated by dividing the mean signal intensity of each treatment group by the mean signal intensity of the DMSO control. Pair-wise 2-tailed Student's t-tests were performed for each treatment group.

[3] = test system: human renin gene expression in CALU-6 cells; assay: Human renin expression profile in CALU-6 cells by quantitative RT-PCR (Example 7); type: cell-based; conditions: qRT-PCR, CALU-6, 5×EC50, 24 hr, FIG. 11
Experimental: Since RAAS plays a fundamental role in fluid volume homeostasis, the possibility that PPAR agonists may contribute to agonist-induced edema mechanism of action through the modulation of other components of this system, specifically renin, was investigated using quantitative RT-PCR. Briefly, gene expression studies were performed using a cell line that was previously shown to express endogenous renin mRNA, CALU-6 (Lang et al., 1995).
The human lung carcinoma cell line, CALU-6, was chosen on account of it being previously shown to endogenously express renin. […]
(§4) Compounds A, B, C, D, and F were synthesized at Bristol-Myers Squibb Co. Compound E was purified by reverse phase high-performance liquid chromatography from commercial pharmaceutical preparations. […] The final concentration of each PPAR-agonist used in the induction studies was 5×EC50 as determined from pre-adipocyte differentiation studies (data not shown). […]
(§5) CALU-6 cells were seeded on day 0 in replicates of six (or twelve for DMSO control), at 5×10^5 cells/well, in 6-well tissue culture plates. […] RNA quantities were determined spectrophotometrically using a SPECTRAMAX® 384 spectrophotometer (Molecular Devices). RNA quality was assessed using an Agilent 2100 Bioanalyzer (Agilent Technologies) following the manufacturer's recommendations. […]

[4] = test system: human endothelin-1 gene expression in CALU-6 cells; assay: Endothelin-1 gene expression in CALU-6 cells, quantitative RT-PCR dose-titration; type: cell-based
From the text: as §1, §2, §3

[5] = test system: human endothelin-1 gene expression in CALU-6 cells; assay: Human endothelin-1 expression profile in CALU-6 cells by quantitative RT-PCR (Example 15); type: cell-based
Experimental: On account of the involvement of ET-1 in vascular tone maintenance, along with its involvement in numerous cardiovascular disease processes, the possibility that PPAR agonists may contribute to an agonist-induced edema mechanism of action through the modulation of endoethelin-1, was investigated using quantitative RT-PCR. Briefly, gene expression studies were performed using a cell line that was previously shown to express endogenous endothelin mRNA, CALU-6 (Lang et al., 1995).
The human lung carcinoma cell line, CALU-6, was obtained from ATCC®. […]
as §4, §5

patients = assay: Dose-dependent peripheral edema in Phase II clinical trials CV168-006 and CV168-008; type: in vivo, human
Experimental: Genomic DNA samples from patients enrolled in two Bristol-Myers Squibb Company Phase II clinical trials CV168-006 and CV168-008 trials were genotyped for 50 SNPs identified in the human renin gene (see Example 1) and evaluated for association with edema.
498 subjects enrolled in the CV168-006 trial and 232 subjects from the CV168-008 trial were analyzed in this study. All analyses were based on data collected up to 24 weeks, which was the duration of the short-term phase of the trials. DNA was extracted from frozen blood by a third-party (Genaissance Inc, North Carolina) using a salting-out method (Gentra Systems). All subjects gave written informed consent.
The association between peripheral edema and the renin single nucleotide polymorphisms of the present invention were investigated by applying statistical analysis to the results of the genotyping assays described elsewhere herein. The central hypothesis of this analysis is that a predisposition to develop dose-dependent peripheral edema may be conferred by specific genomic factors. The analysis attempted to identify one or more of these factors in genomic DNA samples from index cases and matched control subjects who were exposed to Compound A in two Bristol-Myers Squibb (BMS) clinical studies (see Example 2).
Sample. Investigators in the BMS clinical trials diagnosed dose-dependent peripheral edema in some subjects.
Table A provides a distribution of the frequency of dose-dependent peripheral edema by treatment arm.

[6] = Dose E (133 subjects), 40 fold Dose A

**Q.** With COc1ccc(OC(=O)N(CC(=O)O)Cc2ccc(OCCc3nc(-c4ccccc4)oc3C)cc2)cc1 [COM. A, N-[(4-methoxyphenoxy)carbonyl]-N-[[4-[2-(5-methyl-2-phenyl-4-oxazolyl)ethoxy]phenyl]methyl] glycine] as the compound, how does the “edema in clinical use” value (diabetics) read?
**A.** acceptable incidence and severity of edema

**Q.** And the “increase of renin mRNA, factor” value ([1]; CALU-6, qRT-PCR, FIG. 21A)?
**A.** fifteen to twenty

**Q.** And the EC50 ([1]; Homo sapiens, mean ± SEM, renin up-regulation, dose-titration experiments (n = 3 to n = 18), CALU-6, 24 hr)?
**A.** 96.3 ± 32 nM

**Q.** What about the “human renin expression, fold-change over DMSO treated cells” value [2] of the same compound?
**A.** significantly increased

**Q.** What about the “human renin expression, fold-change over DMSO treated cells” value [3] of the same compound?
**A.** significantly elevate

**Q.** And the “down-regulation of endothelin-1 gene expression, factor” value ([4]; CALU-6, qRT-PCR, FIG. 21A)?
**A.** four to five

**Q.** What about the IC50 ([4]; Homo sapiens, mean ± SEM, endothelin-1 down-regulation, dose-titration experiments (n = 3 to n = 18), CALU-6, 24 hr) of the same compound?
**A.** 18 ± 6.07 nM

**Q.** And the “difference in level of endothelin-1 repression compared to other PPAR agonists studied” value ([5]; CALU-6, 5×EC50)?
**A.** no significant difference

**Q.** And the “human endothelin-1 expression, fold-change over DMSO treated cells” value ([5]; qRT-PCR, CALU-6, 5×EC50, 24 hr, FIGS. 16 and 17)?
**A.** significantly decrease

**Q.** What about the “Number of edema cases” value (patients; Dose A (79 subjects)) of the same compound?
**A.** 16

**Q.** And the “edema cases (%)” value (patients; Dose A (79 subjects))?
**A.** 20%

**Q.** What about the “Number of edema cases” value (patients; Dose B (90 subjects)) of the same compound?
**A.** 14

**Q.** What about the “edema cases (%)” value (patients; Dose B (90 subjects)) of the same compound?
**A.** 16%

**Q.** And the “Number of edema cases” value (patients; Dose C (125 subjects))?
**A.** 13

**Q.** What about the “edema cases (%)” value (patients; Dose C (125 subjects)) of the same compound?
**A.** 10%

**Q.** What about the “Number of edema cases” value (patients; Dose D (129 subjects)) of the same compound?
**A.** 27

**Q.** And the “edema cases (%)” value (patients; Dose D (129 subjects))?
**A.** 21%

**Q.** And the “Number of edema cases” value (patients; [6])?
**A.** 54

**Q.** And the “edema cases (%)” value (patients; [6])?
**A.** 40% and 41%

**Q.** And the “frequency of edema with dose” value (patients; dose increased from 0.5 mg to 20 mg)?
**A.** frequency of edema increased
